In patent US20230295152A1 (SENDA BIOSCIENCES, INC., priority 2019, published 2023):

Biological target: T1, AHR (Homo sapiens, UniProt P35869)
T1 construct: other cell line with a DRE-luciferase reporter stably transfected; endogenous in cells; host or cells: HepG2 AhR-Lucia reporter cells
T1 sequence (P35869 11-848): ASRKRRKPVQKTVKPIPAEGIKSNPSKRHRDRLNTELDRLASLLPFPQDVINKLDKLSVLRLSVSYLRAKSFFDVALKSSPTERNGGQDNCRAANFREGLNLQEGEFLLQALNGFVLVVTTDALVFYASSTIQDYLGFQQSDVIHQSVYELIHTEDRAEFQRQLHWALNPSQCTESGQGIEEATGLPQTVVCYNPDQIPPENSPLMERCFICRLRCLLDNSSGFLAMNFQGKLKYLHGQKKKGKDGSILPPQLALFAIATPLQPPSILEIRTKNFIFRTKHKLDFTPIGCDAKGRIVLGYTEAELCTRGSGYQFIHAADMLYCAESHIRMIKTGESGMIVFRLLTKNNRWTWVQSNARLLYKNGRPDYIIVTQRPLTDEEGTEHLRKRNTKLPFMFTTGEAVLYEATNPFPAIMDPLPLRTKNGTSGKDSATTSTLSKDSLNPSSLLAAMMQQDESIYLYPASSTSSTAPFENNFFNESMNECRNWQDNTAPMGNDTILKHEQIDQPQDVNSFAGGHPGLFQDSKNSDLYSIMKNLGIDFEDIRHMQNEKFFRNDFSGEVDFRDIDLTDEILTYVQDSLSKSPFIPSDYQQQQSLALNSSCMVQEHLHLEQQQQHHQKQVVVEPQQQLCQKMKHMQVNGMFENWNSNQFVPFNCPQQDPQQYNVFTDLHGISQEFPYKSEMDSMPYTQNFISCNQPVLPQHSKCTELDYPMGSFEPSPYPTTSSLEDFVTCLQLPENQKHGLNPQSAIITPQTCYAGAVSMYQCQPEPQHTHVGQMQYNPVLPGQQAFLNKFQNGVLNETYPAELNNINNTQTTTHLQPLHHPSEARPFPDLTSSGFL
Assay: DRE-Luciferase Reporter Assay, HepG2 AhR-Lucia reporter cells
Type: cell-based
Conditions: with AHR activating ligand at EC50, read-out: HepG2-Luc IC50
How it was run: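 DRE-luciferase reporter cells (e.g. HepG2 AhR-Lucia, 20000 cells) treated with antagonist log dilutions from 100 uM, then an AHR agonist (e.g. TCDD, kynurenine, ITE, FICZ) at its EC50 added after 1 hr. Secreted luciferase measured after 24 or 48 h (QUANTI-Luc); IC50 = concentration halving luciferase activity.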

Row | Structure (SMILES) | IC50 [nM]
1 | C[C@@H](CO)n1cnc2c(-c3cccnc3)nc(-c3cnc(C(F)(F)F)s3)cc2c1=O [Compound 85] | < 100
2 | CC(C)(O)Cn1cnc2c(-n3ccnc3)nc(-c3ccc(C(F)(F)F)cn3)cc2c1=O [Compound 160, 3-(2-hydroxy-2-methylpropyl)-8-(1H-imidazol-1-yl)-6-(5-(trifluoromethyl)pyridin-2-yl)pyrido[3,4-d]pyrimidin-4(3H)-one] | < 100
3 | O=c1c2cc(-c3ccc(OC(F)(F)F)cc3)nc(-c3cccnc3)c2ncn1C[C@H](O)C(F)(F)F [Compound 124, (S)-8-(pyridin-3-yl)-3-(3,3,3-trifluoro-2-hydroxypropyl)-6-(4-(trifluoromethoxy)phenyl)pyrido[3,4-d]pyrimidin-4(3H)-one] | < 100
4 | Cn1cc(-c2nc(-c3ccc(C4CC4)nc3)cc3c(=O)n(C[C@H](O)C(F)(F)F)cnc23)cn1 [Compound 136, (S)-6-(6-cyclopropylpyridin-3-yl)-8-(1-methyl-1H-pyrazol-4-yl)-3-(3,3,3-trifluoro-2-hydroxypropyl)pyrido[3,4-d]pyrimidin-4(3H)-one] | < 100
5 | Cc1nc(-c2cc3c(=O)n([C@@H](C)CO)cnc3c(-c3cccnc3)n2)cs1 [Compound 183, (S)-3-(1-hydroxypropan-2-yl)-6-(2-methylthiazol-4-yl)-8-(pyridin-3-yl)pyrido[3,4-d]pyrimidin-4(3H)-one] | > 500
6 | C[C@H](O)Cn1cnc2c(-c3cccnc3)nc(-c3ccc(C(F)(F)F)cn3)cc2c1=O [Compound 143, (S)-3-(2-hydroxypropyl)-8-(pyridin-3-yl)-6-(5-(trifluoromethyl)pyridin-2-yl)pyrido[3,4-d]pyrimidin-4(3H)-one] | < 100
7 | O=c1c2cc(-c3ccc(C(F)(F)F)cn3)nc(-c3cccnc3)c2ncn1[C@H]1COC[C@@H]1O [Compound 139, 3-((3S,4R)-4-hydroxytetrahydrofuran-3-yl)-8-(pyridin-3-yl)-6-(5-(trifluoromethyl)pyridin-2-yl)pyrido[3,4-d]pyrimidin-4(3H)-one] | < 100
8 | C[C@@H](CO)n1cnc2c(-c3cccnc3)nc(-c3ccc(OC(F)(F)F)nc3)cc2c1=O [Compound 50] | < 100
9 | Cc1ncc(-c2cc3c(=O)n([C@@H](C)CO)cnc3c(-c3cccnc3)n2)s1 [Compound 89] | < 100
10 | C[C@@H](CO)n1cnc2c(-c3cccnc3)nc(-c3cnc(C4CC4)s3)cc2c1=O [Compound 66] | < 100
11 | O=c1c2cc(-c3ccc(C(F)(F)F)nc3)nc(-c3cccnc3)c2ncn1C[C@@H](O)C(F)(F)F [Compound 122, (R)-8-(pyridin-3-yl)-3-(3,3,3-trifluoro-2-hydroxypropyl)-6-(6-(trifluoromethyl)pyridin-3-yl)pyrido[3,4-d]pyrimidin-4(3H)-one] | < 100
12 | O=c1c2cc(-c3ccc(C4CC4)nc3)nc(-c3cccnc3)c2ncn1C[C@H](O)C(F)(F)F [Compound 120, (S)-6-(6-cyclopropylpyridin-3-yl)-8-(pyridin-3-yl)-3-(3,3,3-trifluoro-2-hydroxypropyl)pyrido[3,4-d]pyrimidin-4(3H)-one] | < 100
13 | CC(C)(O)Cn1cnc2c(-c3cccnc3)nc(-c3ccc(C4CC4)nc3)cc2c1=O [Compound 81] | < 100
14 | O=c1c2cc(-c3ccc(C(F)(F)F)cn3)nc(-c3cccnc3)c2ncn1C[C@H](O)C(F)(F)F [Compound 104, (S)-8-(pyridin-3-yl)-3-(3,3,3-trifluoro-2-hydroxypropyl)-6-(5-(trifluoromethyl)pyridin-2-yl)pyrido[3,4-d]pyrimidin-4(3H)-one] | < 100
15 | C[C@@H](CO)n1cnc2c(-c3cnsc3)nc(-c3ccc(Cl)cc3)cc2c1=O [Compound 58] | < 100
16 | Cn1cc(-c2nc(-c3cnc(C(F)(F)F)nc3)cc3c(=O)n(CC(C)(C)O)cnc23)cn1 [Compound 99] | < 100
17 | CNC(=O)[C@H](C)n1cnc2c(-c3cccnc3)nc(-c3ccc(C(F)(F)F)nc3)cc2c1=O [Compound 156, (S)—N-methyl-2-(4-oxo-8-(pyridin-3-yl)-6-(6-(trifluoromethyl)pyridin-3-yl)pyrido[3,4-d]pyrimidin-3(4H)-yl)propanamide] | < 100
18 | C[C@H](n1cnc2c(-c3cccnc3)nc(-c3cccnc3)cc2c1=O)C(C)(C)O [Compound 34] | < 100

Row | Structure (SMILES) | IC50 [nM]
19 | O=c1c2cc(-c3ccc(Cl)cc3)nc(-c3cccnc3)c2ncn1[C@@H]1COC[C@@H]1O (stereo in doubt) [Compound 71] | < 100
20 | Cn1cc(-c2nc(-c3ccc(C(F)(F)F)nc3)cc3c(=O)n(C[C@H](O)C(F)(F)F)cnc23)cn1 [Compound 111, (S)-8-(1-methyl-1H-pyrazol-4-yl)-3-(3,3,3-trifluoro-2-hydroxypropyl)-6-(6-(trifluoromethyl)pyridin-3-y1)pyrido[3,4-d]pyrimidin-4(3H)-one] | < 100
21 | C[C@@H](CO)n1cnc2c(-c3cnn(C)c3)nc(-c3ccc(OC(F)(F)F)cc3)cc2c1=O [Compound 25] | < 100
22 | C[C@@H](CO)n1cnc2c(-c3cnn(C)c3)nc(-c3cnc(C(F)(F)F)nc3)cc2c1=O [Compound 95] | < 100
23 | Cn1cc(-c2nc(-c3ccc(C4CC4)nc3)cc3c(=O)n(CC(C)(C)O)cnc23)cn1 [Compound 82] | < 100
24 | C[C@@H](CO)n1cnc2c(-c3cnsc3)nc(-c3ccc(C(F)(F)F)nc3)cc2c1=O [Compound 55] | < 100
25 | O=c1c2cc(-c3ccc(C(F)(F)F)cn3)nc(-c3cccnc3)c2ncn1C[C@@H](O)C(F)(F)F [Compound 154, (R)-8-(pyridin-3-yl)-3-(3,3,3-trifluoro-2-hydroxypropyl)-6-(5-(trifluoromethyl)pyridin-2-yl)pyrido[3,4-d]pyrimidin-4(3H)-one] | < 100
26 | C[C@@H](O)Cn1cnc2c(-c3cccnc3)nc(-c3ccc(C(F)(F)F)nc3)cc2c1=O [Compound 112, (R)-3-(2-hydroxypropyl)-8-(pyridin-3-yl)-6-(6-(trifluoromethyl)pyridin-3-yl)pyrido[3,4-d]pyrimidin-4(3H)-one] | < 100
27 | O=c1c2cc(-c3ccc(C(F)(F)F)nc3)nc(-c3cccnc3)c2ncn1[C@H]1COC[C@H]1O [Compound 126, 3-((3S,4S)-4-hydroxytetrahydrofuran-3-yl)-8-(pyridin-3-yl)-6-(6-(trifluoromethyl)pyridin-3-yl)pyrido[3,4-d]pyrimidin-4(3H)-one] | < 100
28 | Cn1cc(-c2nc(-c3ccc(Cl)cc3)cc3c(=O)n([C@H]4COC[C@@H]4O)cnc23)cn1 [Compound 116] | < 100
29 | Cn1cc(-c2nc(-c3ccc(C(F)(F)F)nc3)cc3c(=O)n([C@H]4COC[C@@H]4O)cnc23)cn1 [Compound 114, 3-((3S,4R)-4-hydroxytetrahydrofuran-3-yl)-8-(1-methyl-1H-pyrazol-4-yl)-6-(6-(trifluoromethyl)pyridin-3-yl)pyrido[3,4-d]pyrimidin-4(3H)-one] | < 100
30 | C[C@H](O)Cn1cnc2c(-c3cnn(C)c3)nc(-c3ccc(C(F)(F)F)cn3)cc2c1=O [Compound 142, (S)-3-(2-hydroxypropyl)-8-(1-methyl-1H-pyrazol-4-yl)-6-(5-(trifluoromethyl)pyridin-2-yl)pyrido[3,4-d]pyrimidin-4(3H)-one] | < 100
31 | C[C@@H](CO)n1cnc2c(-n3ccnc3)nc(-c3ccc(C(F)(F)F)cn3)cc2c1=O [Compound 162, (S)-3-(1-hydroxypropan-2-yl)-8-(1H-imidazol-1-yl)-6-(5-(trifluoromethyl)pyridin-2-yl)pyrido[3,4-d]pyrimidin-4(3H)-one] | < 100
32 | C[C@@H](CO)n1cnc2c(N3CCCCC3)nc(-c3ccc(Cl)cc3)cc2c1=O [Compound 177, (S)-6-(4-chlorophenyl)-3-(1-hydroxypropan-2-yl)-8-(piperidin-1-yl)pyrido[3,4-d]pyrimidin-4(3H)-one] | < 100
33 | Cn1cc(-c2nc(-c3ccc(C(F)(F)F)nc3)cc3c(=O)n(C[C@@H](O)C(F)(F)F)cnc23)cn1 [Compound 110, (R)-8-(1-methyl-1H-pyrazol-4-yl)-3-(3,3,3-trifluoro-2-hydroxypropyl)-6-(6-(trifluoromethyl)pyridin-3-yl)pyrido[3,4-d]pyrimidin-4(3H)-one] | < 100
34 | O=c1c2cc(-c3ccc(C(F)(F)F)nc3)nc(-c3cccnc3)c2ncn1[C@H]1COC[C@@H]1O [Compound 117] | < 100
35 | O=c1c2cc(-c3ccc(C(F)(F)F)cn3)nc(-c3cccnc3)c2ncn1[C@H]1COC[C@H]1O [Compound 145, 3-((3S,4S)-4-hydroxytetrahydrofuran-3-yl)-8-(pyridin-3-yl)-6-(5-(trifluoromethyl)pyridin-2-yl)pyrido[3,4-d]pyrimidin-4(3H)-one] | < 100
